In ChEMBL document CHEMBL1201862, “PubChem BioAssay data set” (2004):
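Test compounds were applied to cells in 96-well plates for 48 hours at 5 doses. GI50: concentration for 50% inhibition of growth.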 The source made the active and inactive calls. Cut-off read from the data, not from the text of the source: active = GI50 up to about 1.1 µM and inactive = higher. Residues, ends and D or L forms follow the SMILES beside them. *: point of attachment. Boc = CC(C)(C)OC(=O)*; OBn = c1ccc(CO*)cc1

Columns and labels:
Experiment in all cases: DTP human tumour cell line panel, 48 h
A549 = tested on: A549
CAKI-1 = tested on: CAKI-1
HCT-15 = tested on: HCT-15
HL-60 = tested on: HL-60
Hs-578T = tested on: Hs-578T
LOX IMVI = tested on: LOX IMVI
M14 = tested on: M14
MCF7 = tested on: MCF7
MDA-N = tested on: MDA-N
MOLT-4 = tested on: MOLT-4
NCI-H23 = tested on: NCI-H23
NCI-H460 = tested on: NCI-H460
OVCAR-3 = tested on: OVCAR-3
RPMI-8226 = tested on: RPMI-8226
SF-539 = tested on: SF-539
SNB-19 = tested on: SNB-19
SR = tested on: SR
TK-10 = tested on: TK-10
U-251 = tested on: U-251
NCI-H522 = tested on: NCI-H522

| SMILES | GI50 (A549) | GI50 (CAKI-1) | GI50 (HCT-15) [µM] | GI50 (HL-60) | GI50 (Hs-578T) | GI50 (LOX IMVI) | GI50 (M14) | GI50 (MCF7) | GI50 (MDA-N) | GI50 (MOLT-4) | GI50 (NCI-H23) | GI50 (NCI-H460) | GI50 (OVCAR-3) | GI50 (RPMI-8226) | GI50 (SF-539) | GI50 (SNB-19) | GI50 (SR) | GI50 (TK-10) | GI50 (U-251) | GI50 (NCI-H522) |
| --- | --- | --- | --- | --- | --- | --- | --- | --- | --- | --- | --- | --- | --- | --- | --- | --- | --- | --- | --- | --- |
| O=C(OCCN=c1c2ccccc2ccc2ccccc12)c1ccc([N+](=O)[O-])cc1 | > 100 µM (inactive) | > 100 µM (inactive) | > 100 | > 100 µM (inactive) | > 100 µM (inactive) | > 100 µM (inactive) | > 100 µM (inactive) | > 100 µM (inactive) | > 100 µM (inactive) | > 100 µM (inactive) | > 100 µM (inactive) | > 100 µM (inactive) | > 100 µM (inactive) | > 100 µM (inactive) | > 100 µM (inactive) | > 100 µM (inactive) | > 100 µM (inactive) | > 100 µM (inactive) | > 100 µM (inactive) | – |
| CC(C)N(C(=O)C12C3(C(=O)C(C)(C)C)C4C5(C#N)C3C1(C(=O)C(C)(C)C)C5C42C(=O)C(C)(C)C)C(C)C (stereo not given) | > 100 µM (inactive) | > 100 µM (inactive) | > 100 | > 100 µM (inactive) | > 100 µM (inactive) | > 100 µM (inactive) | > 100 µM (inactive) | > 100 µM (inactive) | > 100 µM (inactive) | > 100 µM (inactive) | > 100 µM (inactive) | > 100 µM (inactive) | > 100 µM (inactive) | – | > 100 µM (inactive) | > 100 µM (inactive) | > 100 µM (inactive) | > 100 µM (inactive) | > 100 µM (inactive) | > 100 µM (inactive) |
| N#CC(CCN1CCC(Nc2ccccc2)(c2nnnn2C2CCCCC2)CC1)(c1ccccc1)c1ccccc1 | > 100 µM (inactive) | – | > 100 | > 100 µM (inactive) | > 100 µM (inactive) | > 100 µM (inactive) | > 100 µM (inactive) | 58.2 µM (inactive) | > 100 µM (inactive) | > 100 µM (inactive) | > 100 µM (inactive) | > 100 µM (inactive) | > 100 µM (inactive) | > 100 µM (inactive) | > 100 µM (inactive) | > 100 µM (inactive) | > 100 µM (inactive) | > 100 µM (inactive) | > 100 µM (inactive) | > 100 µM (inactive) |
| Cc1ccccc1C(O)(c1nccn1C)c1nccn1C | > 100 µM (inactive) | > 100 µM (inactive) | > 100 | > 100 µM (inactive) | > 100 µM (inactive) | – | > 100 µM (inactive) | > 100 µM (inactive) | > 100 µM (inactive) | > 100 µM (inactive) | – | > 100 µM (inactive) | > 100 µM (inactive) | – | > 100 µM (inactive) | > 100 µM (inactive) | > 100 µM (inactive) | > 100 µM (inactive) | > 100 µM (inactive) | > 100 µM (inactive) |
| CC(=O)OCC1OC(n2c(C)c(/N=N/c3ccc(C)cc3)c(C)c(C#N)c2=S)C(OC(C)=O)C(OC(C)=O)C1OC(C)=O (stereo not given) | > 100 µM (inactive) | > 100 µM (inactive) | – | > 100 µM (inactive) | 23.5 µM (inactive) | > 100 µM (inactive) | 48.6 µM (inactive) | > 100 µM (inactive) | > 100 µM (inactive) | > 100 µM (inactive) | > 100 µM (inactive) | > 100 µM (inactive) | > 100 µM (inactive) | > 100 µM (inactive) | 39.3 µM (inactive) | > 100 µM (inactive) | > 100 µM (inactive) | > 100 µM (inactive) | > 100 µM (inactive) | – |
| NS(=O)(=O)c1nnc(NSc2ccc([N+](=O)[O-])cc2)s1 | > 100 µM (inactive) | 92.3 µM (inactive) | > 100 | – | > 100 µM (inactive) | > 100 µM (inactive) | > 100 µM (inactive) | > 100 µM (inactive) | > 100 µM (inactive) | 40.8 µM (inactive) | > 100 µM (inactive) | > 100 µM (inactive) | > 100 µM (inactive) | 49.7 µM (inactive) | – | > 100 µM (inactive) | 59.6 µM (inactive) | > 100 µM (inactive) | > 100 µM (inactive) | 23.7 µM (inactive) |
| C=C1C2C[C@@H]3O[C@H]4C[C@H]5O[C@@]6(C[C@@H]7O[C@]8(C[C@H](C)[C@@H]9O[C@@H]%10CC(CO)O[C@@H]%10C[C@@H]9O8)C[C@H](C)[C@@H]7O6)C[C@H]5O[C@H]4[C@H](C)[C@H]3OC(=O)C[C@H]3CC[C@@H]4OC5[C@H]6O[C@]7(CC[C@H]8CC(=C)[C@H](CC[C@@H](C[C@H]1C)O2)O8)CC6O[C@@H]5[C@@H](O7)[C@H]4O3 (stereo not given in full) | < 0.0001 µM (active) | < 0.0001 µM (active) | < 0.0001 | – | < 0.0001 µM (active) | < 0.0001 µM (active) | < 0.0001 µM (active) | < 0.0001 µM (active) | < 0.0001 µM (active) | < 0.0001 µM (active) | < 0.0001 µM (active) | < 0.0001 µM (active) | < 0.0001 µM (active) | < 0.0001 µM (active) | – | < 0.0001 µM (active) | < 0.0001 µM (active) | < 0.0001 µM (active) | < 0.0001 µM (active) | < 0.0001 µM (active) |
| CC(NC(=O)CNC(=O)OC(C)(C)C)C(=O)NC(Cc1ccccc1)C(=O)OCc1ccccc1 (stereo not drawn) (Boc-Gly-Ala-Phe-OBn; configuration not given here) | > 100 µM (inactive) | > 100 µM (inactive) | > 100 | 36.3 µM (inactive) | 11.2 µM (inactive) | 7.23 µM (inactive) | > 100 µM (inactive) | > 100 µM (inactive) | > 100 µM (inactive) | 36 µM (inactive) | > 100 µM (inactive) | – | – | – | > 100 µM (inactive) | > 100 µM (inactive) | 23.8 µM (inactive) | > 100 µM (inactive) | > 100 µM (inactive) | 68.4 µM (inactive) |
